Legend:
Mäuse = experiment: Mortality of mice after repeated intravenous injections, 42-day observation; conditions: 30 daily i.v. injections, 5 consecutive days per block, 4 blocks, 2 treatment-free days between, Amphotericin B 4 mg/kg, xanthine derivatives 20 mg/kg each, dissolved in 5 % aqueous glucose solution
[1] = Pathophysiological serum findings (nephrotoxicity markers) in mice after repeated intravenous treatment; type: in vivo, Mäuse; conditions: serum of mice, treated 9 times intravenously within 11 days; pooled sera of 3 mice each; Pentoxifyllin 20 mg/kg, Amphotericin B 4 mg/kg
Description: Es wurden Mäuse im Verlauf von 11 Tagen 9 mal intravenös mit Pentoxifyllin (20 mg/kg), Amphotericin B (4 mg/kg) und Amphotericin B (4 mg/kg) in Kombination mit Pentoxifyllin (20 mg/kg) sowie mit einer Lösungsmittelkontrolle behandelt. Zur Beurteilung der Nephrotoxizität der jeweils verabreichten Substanzen wurden bei den Versuchstieren folgende Stoffe bestimmt: Creatinin: Eine gestörte Creatininclearance durch eine geschädigte Niere führt zu einem erhöhten Gehalt von Creatinin im Serum (Hypercreatininaemie) Harnstoff : Erhöhte Konzentrationen im Serum werden regelmäßig bei einer schweren Nierenfunktionsstörung beobachtet. Eine verminderte Harnstoffclearance führt zu einem erhöhten Gehalt im Serum Kalium: Da Kaliumionen bis zu 95 % durch die Nieren ausgeschieden werden, ist eine Hyperkaliaemie ein deutliches Zeichen für eine schwere Nierenfunktionsstörung. Tabelle 1

Nieren = experiment: Histopathological examination of kidneys of intravenously treated mice (PAS staining); type: in vivo, Mäuse; conditions: mice treated i.v. over 11, 25, 39 or 53 days; Pentoxifyllin 20 mg/kg, Amphotericin B 4 mg/kg; 4 animals per time point; compared with glucose solvent control
Description: Weiterhin läßt sich die nephrotoxizitätssenkende Wirkung der Xanthinderivate durch histologische Untersuchung von Versuchstieren feststellen.
Dazu wurden […] Mäuse mit Glukose, Pentoxifyllin (20 mg/kg), Amphotericin B (4 mg/kg) oder der Kombination von Pentoxifyllin/Amphotericin B (20 mg/kg bzw. 4 mg/kg) über einen Zeitraum von 11, 25, 39 oder 53 Tagen intravenös behandelt.
Nach den angegebenen Versuchszeiten wurden je 4 Tiere getötet und Serum für serologische Untersuchungen entnommen. Die Nieren wurden in Bouin'schem Gemisch fixiert, nach üblicher histologischer Technik aufgearbeitet und PAS-gefärbt.

Row | Structure (SMILES) | Mortalitäten nach einer Beobachtungszeit von 42 Tagen (Mäuse) | Creatinin [1] [µmol/L] | Harnstoff [1] | Kalium [1] | histopathologische Untersuchungen der Nieren (Nieren)
1 | Cn1c(=O)n(CCCCC(C)(C)O)c(=O)c2[nH]cnc21 [1-(5-Hydroxy-5-methyl-hexyl)-3-methylxanthin] | 0 von 25 Mäusen gestorben | – | – | – | –
2 | CCOCn1cnc2c1c(=O)n(CCCCC(C)(C)O)c(=O)n2C [7-Ethoxymethyl-1-(5-hydroxy-5-methylhexyl)-3-methyl-xanthin] | 0 von 25 Mäusen gestorben | – | – | – | –
3 | C[C@@H]1[C@H](O)[C@@H](C)/C=C/C=C/C=C/C=C/C=C/C=C/C=C/[C@H](O[C@@H]2O[C@H](C)[C@@H](O)[C@H](N)[C@@H]2O)C[C@@H]2O[C@](O)(C[C@@H](O)C[C@@H](O)[C@H](O)CC[C@@H](O)C[C@@H](O)CC(=O)O[C@H]1C)C[C@H](O)[C@H]2C(=O)O [Amphotericin B] | 73 von 92 Mäusen gestorben | 55 | 10,5 mmol/l | 10,1 mmol/l | erhebliche Schäden des tubulären Apparats
4 | CC(=O)CCCCn1c(=O)c2c(ncn2C)n(C)c1=O [Pentoxifyllin, 3,7-Dimethyl-1-(5-oxohexyl)xanthin] | 0 von 25 Mäusen gestorben | – | – | – | –

From patent EP0414175A2, “Use of xanthine derivatives to reduce nephrotoxicity” (HOECHST AKTIENGESELLSCHAFT, priority 1989, dated 1991)
